Entries after “also recorded” stand apart in the source; their conditions may differ. Read-outs that look alike come from different tables or passages of the source.
Experiments:
GAL-4-PPAR-gamma chimera = target: T1, GAL-4-PPAR-gamma chimera (Homo sapiens, UniProt P37231); conditions: compounds isolated from EtOH extract of licorice; cited from earlier work
T1 construct: GAL-4 (fusion partner of the chimera)

PPARγ [1] = target: T2, PPARγ (Homo sapiens, UniProt P37231); conditions: cited from earlier work
T2 sequence (P37231 1-505): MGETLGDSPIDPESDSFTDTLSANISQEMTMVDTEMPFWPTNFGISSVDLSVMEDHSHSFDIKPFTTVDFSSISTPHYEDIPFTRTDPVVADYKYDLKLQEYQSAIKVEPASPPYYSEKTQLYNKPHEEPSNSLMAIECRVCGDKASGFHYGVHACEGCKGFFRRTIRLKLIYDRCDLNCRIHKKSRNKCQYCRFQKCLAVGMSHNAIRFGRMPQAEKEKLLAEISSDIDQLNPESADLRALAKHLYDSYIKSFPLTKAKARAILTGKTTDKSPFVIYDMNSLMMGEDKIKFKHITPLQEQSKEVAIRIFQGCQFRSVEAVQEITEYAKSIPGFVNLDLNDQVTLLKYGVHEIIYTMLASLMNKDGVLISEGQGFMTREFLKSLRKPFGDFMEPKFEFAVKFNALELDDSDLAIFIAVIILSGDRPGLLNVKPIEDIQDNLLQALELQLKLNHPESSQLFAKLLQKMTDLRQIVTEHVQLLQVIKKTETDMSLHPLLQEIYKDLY

PPARγ [2] = target: T2, PPARγ; conditions: cited from earlier work; remark: listed apart in the source
PPAR α = target: T3, PPAR α (Mus musculus, UniProt P23204); conditions: 3T3-L1 cells; cited from earlier work
T3 construct: host or cells: 3T3-L1
T3 sequence (P23204 1-468): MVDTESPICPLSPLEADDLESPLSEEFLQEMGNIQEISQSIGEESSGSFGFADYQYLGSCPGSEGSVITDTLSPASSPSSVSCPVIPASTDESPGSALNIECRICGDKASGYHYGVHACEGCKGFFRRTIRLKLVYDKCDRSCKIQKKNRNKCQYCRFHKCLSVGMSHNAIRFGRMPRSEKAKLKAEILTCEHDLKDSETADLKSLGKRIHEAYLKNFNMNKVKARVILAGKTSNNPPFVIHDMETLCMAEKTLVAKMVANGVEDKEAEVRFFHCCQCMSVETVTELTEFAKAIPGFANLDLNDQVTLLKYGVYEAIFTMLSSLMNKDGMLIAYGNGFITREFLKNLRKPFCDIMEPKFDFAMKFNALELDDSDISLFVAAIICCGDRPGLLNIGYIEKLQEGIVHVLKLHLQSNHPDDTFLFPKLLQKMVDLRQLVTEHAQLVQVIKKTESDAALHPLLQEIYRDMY

PPARγ [3] = target: T4, PPARγ (Mus musculus, UniProt P37238); conditions: 3T3-L1 cells; cited from earlier work
T4 construct: host or cells: 3T3-L1
T4 sequence (P37238 1-505): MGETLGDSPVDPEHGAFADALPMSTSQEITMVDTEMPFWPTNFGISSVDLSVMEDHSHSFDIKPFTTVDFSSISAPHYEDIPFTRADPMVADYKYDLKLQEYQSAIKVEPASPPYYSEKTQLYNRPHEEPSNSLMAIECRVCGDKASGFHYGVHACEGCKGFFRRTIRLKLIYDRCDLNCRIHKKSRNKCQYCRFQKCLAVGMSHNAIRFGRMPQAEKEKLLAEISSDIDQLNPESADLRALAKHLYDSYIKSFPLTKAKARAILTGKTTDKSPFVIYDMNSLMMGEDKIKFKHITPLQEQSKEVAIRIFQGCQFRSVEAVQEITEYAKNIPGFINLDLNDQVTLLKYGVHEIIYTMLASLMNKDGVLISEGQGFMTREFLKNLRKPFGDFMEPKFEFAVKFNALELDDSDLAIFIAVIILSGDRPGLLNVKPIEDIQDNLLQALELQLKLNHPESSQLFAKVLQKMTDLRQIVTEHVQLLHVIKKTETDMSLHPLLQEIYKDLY

[4] = target: T5, PPAR δ ligand binding domain (Homo sapiens, UniProt Q03181); conditions: cited from earlier work
T5 sequence (Q03181 211-439 limits assumed): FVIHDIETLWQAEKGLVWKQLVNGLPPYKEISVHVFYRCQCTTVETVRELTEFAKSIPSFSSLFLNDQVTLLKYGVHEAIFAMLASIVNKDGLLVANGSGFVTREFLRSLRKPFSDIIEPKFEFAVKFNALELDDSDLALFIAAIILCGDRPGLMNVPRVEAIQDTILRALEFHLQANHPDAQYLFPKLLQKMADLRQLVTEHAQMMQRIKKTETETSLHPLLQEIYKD

[5] = target: PPAR γ ligand binding domain (Homo sapiens, UniProt P37231); conditions: cited from earlier work
PPARγ [6] = target: T4, PPARγ; conditions: 3T3-L1 preadipocytes; cited from earlier work
msP rats = experiment: Central PPAR antagonist GW9662 on andrographolide-induced reduction of alcohol intake in msP rats; type: in vivo, rat
Procedure: GW9662, purchased from Tocris (Bristol, UK), was dissolved in 10% DMSO and 3% Tween 80 and the final volume (5 μg/μl) was adjusted adding distilled water. GW9662 was injected ICV in a volume of 1 μl per rat by means of a stainless-steel injector 2.5 mm longer than the guide cannula, so that its tip protruded into the ventricle.
A 22-gauge guide cannula for intracerebroventricular (ICV) drug injections was stereotaxically implanted into the lateral cerebroventricle with the following coordinates: anteroposterior (AP)=1.0; lateral (L)=1.8; ventral (V)=2.0 with reference to bregma.
A widely used method for testing fluid preference is the two-bottle choice paradigm, in which water and 10% (v/v) alcohol solution were offered in graduated drinking tubes equipped with metallic drinking spouts and their consumption was measured by reading the volume consumed from the graduated tubes. Food intake was measured by weighing the food containers and taking into account spillage. Alcohol, water and food intakes are expressed as g/kg to reduce the influence of differences in body weight.
To examine whether the effect of andrographolide on alcohol intake is mediated by brain PPAR receptors, another group of msP rats (N=31) was treated ICV with 5 μg/rat of the PPAR antagonist GW9662 and then injected with andrographolide (10 mg/kg) or its vehicle. In a between-subject design each group of animals (N=7-8/group) received a different drug dose for 6 consecutive days. GW9662 or its vehicle were administered twice daily at 12 hours and 30 minutes before the beginning of the dark period of the light-dark cycle. Andrographolide was given immediately after GW9662 administrations.
Alcohol, water, and food intake was recorded at 0.5, 2, 8 and 24 hours from the moment that alcohol was made available.

T1 sequence (P37231 with tags, fused parts or gaps limits assumed): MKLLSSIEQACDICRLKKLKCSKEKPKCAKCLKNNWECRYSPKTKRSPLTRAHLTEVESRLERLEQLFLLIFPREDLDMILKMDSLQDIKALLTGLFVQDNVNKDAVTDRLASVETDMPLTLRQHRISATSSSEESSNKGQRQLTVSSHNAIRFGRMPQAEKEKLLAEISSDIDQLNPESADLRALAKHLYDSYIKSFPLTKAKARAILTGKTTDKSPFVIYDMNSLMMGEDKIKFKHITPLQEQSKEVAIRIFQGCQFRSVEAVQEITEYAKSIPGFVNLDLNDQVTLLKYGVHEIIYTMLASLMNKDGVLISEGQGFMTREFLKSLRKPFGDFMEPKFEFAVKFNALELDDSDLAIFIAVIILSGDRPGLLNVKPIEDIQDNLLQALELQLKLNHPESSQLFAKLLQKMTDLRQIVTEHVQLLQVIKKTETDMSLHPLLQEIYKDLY

Molecule	PPAR-gamma ligand-binding activity (GAL-4-PPAR-gamma chimera)	other results
COc1cc(O)ccc1/C=C/C(=O)c1ccc(O)cc1 [echinatin]	significant PPAR-gamma ligand-binding activity	
CC(C)=CCC/C(C)=C\CO [nerol]		activation of PPARγ (PPARγ [1]): not
CC(C)=CCc1cc([C@@H]2CC(=O)c3ccc4c(c3O2)C=CC(C)(C)O4)ccc1O [shinflavanone]	significant PPAR-gamma ligand-binding activity	
O=c1c(-c2ccc(O)cc2)coc2cc(O)cc(O)c12 [genistein]		activation of PPARγ (PPARγ [2]): potent activators of PPARγ
CC1(C)C=Cc2c(ccc(-c3coc4cc(O)ccc4c3=O)c2O)O1 [glabrone]	significant PPAR-gamma ligand-binding activity	
CC(C)=CCc1c(O)cc(O)c2c(=O)c(-c3ccc(O)c(O)c3)coc12 [gancaonin L]	significant PPAR-gamma ligand-binding activity	
CCCC\C=C/C=C/C=C\CCCCCCCC(=O)O [PUA, punicic acid]		PPAR α reporter activity (PPAR α): dose-dependent increase; PPAR γ reporter activity (PPARγ [3]): dose-dependent increase; binding to PPAR δ ligand binding domain [4]: bind; binding to PPAR γ ligand binding domain [5]: bind
licoflavanone A	significant PPAR-gamma ligand-binding activity	
CC(C)=CCc1cc([C@H]2Oc3cc(O)ccc3C[C@H]2O)ccc1O [(2R,3R)-3,4′,7-trihydroxy-3′-prenylflavane]	significant PPAR-gamma ligand-binding activity	
CC1(C)C=Cc2c(ccc3c2OC[C@@H](c2cc(C=O)c(O)cc2O)C3)O1 [5′-formylglabridin]	significant PPAR-gamma ligand-binding activity	
CC1(C)C=Cc2c(ccc3cc(-c4ccc(O)cc4O)c(=O)oc23)O1 [kanzonol W]	significant PPAR-gamma ligand-binding activity	
CC(C)=CCc1cc([C@@H]2CC(=O)c3ccc(O)c(CC=C(C)C)c3O2)ccc1O [glabrol]	significant PPAR-gamma ligand-binding activity	
CC1(C)C=Cc2c(ccc3c2OC[C@H]2c4ccc(O)cc4O[C@@H]32)O1 [shinpterocarpin]	significant PPAR-gamma ligand-binding activity	
CC1=CC(=O)CC(C)(C)[C@@]1(O)/C=C/C(C)=C\C(=O)O [abscisic acid]		activity of PPARγ (PPARγ [6]): increase the activity of PPARγ
O=C(Nc1ccccc1)c1cc([N+](=O)[O-])ccc1Cl [GW9662]		alcohol drinking (msP rats; GW9662 5 μg/rat ICV alone, twice daily, 6 days, p>0.05): no similar effect; blockade of the andrographolide effect on alcohol drinking (msP rats; GW9662 5 μg/rat ICV given before andrographolide 10 mg/kg): blocked the effect of andrographolide at 8 and 24 hours starting from the third day of treatment; also recorded: completely prevents the andrographolide effect on alcohol drinking
COc1ccc(-c2coc3cc(O)cc(O)c3c2=O)cc1 [biochanin A]		activation of PPARγ (PPARγ [2]): potent activators of PPARγ
CC(C)=CCCC(C)CCO (stereo not drawn) [Citronellol, citronellol]		activation of PPARγ (PPARγ [1]): activate PPARγ
CC(C)=CCC/C(C)=C/CO [geraniol]		activation of PPARγ (PPARγ [1]): activate PPARγ
COc1ccc([C@@H]2COc3cc(O)ccc3C2)c(O)c1O [(3R)-2′,3′,7-trihydroxy-4′-methoxyisoflavan]	significant PPAR-gamma ligand-binding activity	
CC(C)=CCc1c(O)ccc([C@@H]2COc3c(ccc(O)c3CC=C(C)C)C2)c1O [kanzonol X]	significant PPAR-gamma ligand-binding activity	

— patent US20140072662A1, “Andrographis Paniculata Compositions and Methods for Treatment of Addictions” (Omeros Corporation, priority 2012, published 2014)
